Assays:
[1] = tested on: panel of 60 human cancer cell lines; test: NCI/DTP in vitro anticancer screen, 60 cell lines; format: cell-based; details: 60 cell; NCI panel of 60 human cancer cell lines, value per compound (FIG. 10A); read-out: GI50 (growth inhibition by 50%)
Experimental: The twenty-three compounds of Formula I shown below were evaluated for their antiproliferative effects in a panel of 60 human cancer cell lines as part of the in vitro anticancer screening services provided by the DTP (Developmental Therapeutics Program) of the US National Cancer Institute (NCI) U.S. National Cancer Institute (NCI) of the National Institutes of Health (NIH) in […], Md.
The NCI conducts a standard 48/72 hour 60 cell line assay and an in vitro time course assay as described in Alley et al. (Cancer Res (1988) 48:589). In the standard 60 cell line assay, a minimum of 5 concentrations of the test compound are tested at 10-fold dilutions against 60 cell lines and cell growth is assayed at 48 and 72 hours using a sulphorhodamine B assay. For the time course analysis, tumour cells are treated with the test compound at various time points, then washed and grown in medium free of the test compound until the end of the experiment at 144 hrs. This assay employs 20% FBS to better approximate the minimum c×t (concentrations and times) test compound exposure conditions that are required to achieve activity in vivo. Cell growth is quantified by an MTT assay (similar to the XTT assay described above) and the concentration of the test compound required for growth inhibition is determined. […]

[2] = tested on: HT29 colon adenocarcinoma cells; test: morphological changes (vacuoles), HT29; format: cell-based, human; details: treatment for 24 hours
Source text: (§1) These vacuoles are not formed in DMSO- or doxorubicin-treated cells. Moreover, the nuclear membrane is no longer evident in the phase-contrast images of cells treated with compound 45, even though the nucleus is still intact, as shown by DAPI staining.

[3] = tested on: MDA-MB-231 breast adenocarcinoma cells; test: morphological changes (vacuoles), MDA-MB-231; format: cell-based, human; details: MDA-MB-231 cells, treatment for 24 hours
Source text: as §1

Abl = biological target: T1, Abl (Homo sapiens, UniProt P00519); test: kinase profiler, Abl; format: biochemical; details: 10 μM compound, 100 μM ATP, mean of % control
T1 construct: purchased Upstate Biotechnologies (kinase profiler service)
Experimental: (§2) Compound 45 was tested for its ability to function as a kinase inhibitor using the kinase profiler service from Upstate Biotechnologies. The general protocol employed is as follows: recombinant kinases were incubated with specific substrates, 10 mM MgAcetate, and [γ-^33P-ATP]. The reaction was initiated by the addition of MgATP mix. After incubation at room temperature for 40 minutes, the reaction was stopped by the addition of 5 μl of a 3% phosphoric acid solution. 10 μl of the reaction was then spotted on to a P30 filtermat and washed 3 times for 5 min. in 75 mM phosphoric acid and once in methanol prior to drying and scintillation counting. Each reaction was performed in duplicate with 100 μM ATP −/+10 μM compound 45. Results are presented in Table IV and are expressed as the mean of % control (no compound). PI 3-kinase-γ (PI3K-γ) activity was determined with the PIProfiler™ assay, which measures the binding of the GRP1 pleckstrin homology (PH) domain to PIP3, the product of PI3K acting on its physiological substrate PIP2.

CDK2/cyclinA = biological target: T2, CDK2/cyclinA (Homo sapiens, UniProt P24941); test: kinase profiler, CDK2/cyclinA; format: biochemical; details: 10 μM compound, 100 μM ATP, mean of % control
T2 construct: purchased Upstate Biotechnologies (kinase profiler service)
Experimental: as §2

EphB4 = biological target: T3, EphB4 (Homo sapiens, UniProt P54760); test: kinase profiler, EphB4; format: biochemical; details: 10 μM compound, 100 μM ATP, mean of % control
T3 construct: purchased Upstate Biotechnologies (kinase profiler service)
Experimental: as §2

ErbB4 = biological target: T4, ErbB4 (Homo sapiens, UniProt Q15303); test: kinase profiler, ErbB4; format: biochemical; details: 10 μM compound, 100 μM ATP, mean of % control
T4 construct: purchased Upstate Biotechnologies (kinase profiler service)
Experimental: as §2

FGFR3 = biological target: T5, FGFR3 (Homo sapiens, UniProt P22607); test: kinase profiler, FGFR3; format: biochemical; details: 10 μM compound, 100 μM ATP, mean of % control
T5 construct: purchased Upstate Biotechnologies (kinase profiler service)
Experimental: as §2

MSK1 = biological target: T6, MSK1 (Homo sapiens, UniProt O75582); test: kinase profiler, MSK1; format: biochemical; details: 10 μM compound, 100 μM ATP, mean of % control
T6 construct: purchased Upstate Biotechnologies (kinase profiler service)
Experimental: as §2

PAK2 = biological target: T7, PAK2 (Homo sapiens, UniProt Q13177); test: kinase profiler, PAK2; format: biochemical; details: 10 μM compound, 100 μM ATP, mean of % control
T7 construct: purchased Upstate Biotechnologies (kinase profiler service)
Experimental: as §2

PI3K-β = biological target: T8, PI3K-β (Homo sapiens, UniProt P42338); test: kinase profiler, PI3K-β; format: biochemical; details: 10 μM compound, mean of % control
T8 construct: purchased Upstate Biotechnologies (kinase profiler service)

PKCα = biological target: T9, PKCα (Homo sapiens, UniProt P17252); test: kinase profiler, PKCα; format: biochemical; details: 10 μM compound, 100 μM ATP, mean of % control
T9 construct: purchased Upstate Biotechnologies (kinase profiler service)
Experimental: as §2

PKCδ = biological target: T10, PKCδ (Homo sapiens, UniProt Q05655); test: kinase profiler, PKCδ; format: biochemical; details: 10 μM compound, 100 μM ATP, mean of % control
T10 construct: purchased Upstate Biotechnologies (kinase profiler service)
Experimental: as §2

PKD2 = biological target: T11, PKD2 (Homo sapiens, UniProt Q9BZL6); test: kinase profiler, PKD2; format: biochemical; details: 10 μM compound, 100 μM ATP, mean of % control
T11 construct: purchased Upstate Biotechnologies (kinase profiler service)
Experimental: as §2

Plk3 = biological target: T12, Plk3 (Homo sapiens, UniProt Q9H4B4); test: kinase profiler, Plk3; format: biochemical; details: 10 μM compound, 100 μM ATP, mean of % control
T12 construct: purchased Upstate Biotechnologies (kinase profiler service)
Experimental: as §2

Rse = biological target: T13, Rse (Homo sapiens, UniProt Q06418); test: kinase profiler, Rse; format: biochemical; details: 10 μM compound, 100 μM ATP, mean of % control
T13 construct: purchased Upstate Biotechnologies (kinase profiler service)
Experimental: as §2

TAK1 = biological target: T14, TAK1 (Homo sapiens, UniProt O43318); test: kinase profiler, TAK1; format: biochemical; details: 10 μM compound, 100 μM ATP, mean of % control
T14 construct: purchased Upstate Biotechnologies (kinase profiler service)
Experimental: as §2

T5 sequence (P22607 23-806): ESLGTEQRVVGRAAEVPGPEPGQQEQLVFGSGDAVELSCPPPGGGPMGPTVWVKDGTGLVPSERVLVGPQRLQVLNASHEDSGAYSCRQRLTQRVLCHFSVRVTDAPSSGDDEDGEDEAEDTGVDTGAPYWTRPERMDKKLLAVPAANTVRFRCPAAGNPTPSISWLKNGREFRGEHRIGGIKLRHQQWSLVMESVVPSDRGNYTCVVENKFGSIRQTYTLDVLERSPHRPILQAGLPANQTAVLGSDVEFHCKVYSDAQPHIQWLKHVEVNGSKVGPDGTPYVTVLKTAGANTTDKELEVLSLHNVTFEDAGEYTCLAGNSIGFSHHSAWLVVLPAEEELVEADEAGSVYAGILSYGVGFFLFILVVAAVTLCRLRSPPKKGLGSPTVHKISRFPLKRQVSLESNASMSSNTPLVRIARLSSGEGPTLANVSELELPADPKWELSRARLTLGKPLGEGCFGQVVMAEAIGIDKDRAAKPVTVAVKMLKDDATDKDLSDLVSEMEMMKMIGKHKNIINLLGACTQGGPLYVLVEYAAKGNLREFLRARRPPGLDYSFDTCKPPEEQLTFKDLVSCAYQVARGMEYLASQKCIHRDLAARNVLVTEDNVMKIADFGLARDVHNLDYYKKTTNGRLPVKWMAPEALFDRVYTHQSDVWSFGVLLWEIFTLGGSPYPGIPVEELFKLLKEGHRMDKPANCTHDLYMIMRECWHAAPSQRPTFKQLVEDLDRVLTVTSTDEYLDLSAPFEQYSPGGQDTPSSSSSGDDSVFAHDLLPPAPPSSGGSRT
T14 sequence (O43318 1-303 limits assumed): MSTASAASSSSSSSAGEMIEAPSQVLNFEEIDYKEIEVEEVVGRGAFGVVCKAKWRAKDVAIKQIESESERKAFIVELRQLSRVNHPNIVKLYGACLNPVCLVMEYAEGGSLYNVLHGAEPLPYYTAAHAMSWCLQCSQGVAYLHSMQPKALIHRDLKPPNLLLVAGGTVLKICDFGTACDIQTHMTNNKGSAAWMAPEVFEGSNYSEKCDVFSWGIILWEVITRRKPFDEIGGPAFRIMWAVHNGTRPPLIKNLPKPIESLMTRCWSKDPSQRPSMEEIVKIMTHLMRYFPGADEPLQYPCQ
T6 sequence (O75582 whole entry): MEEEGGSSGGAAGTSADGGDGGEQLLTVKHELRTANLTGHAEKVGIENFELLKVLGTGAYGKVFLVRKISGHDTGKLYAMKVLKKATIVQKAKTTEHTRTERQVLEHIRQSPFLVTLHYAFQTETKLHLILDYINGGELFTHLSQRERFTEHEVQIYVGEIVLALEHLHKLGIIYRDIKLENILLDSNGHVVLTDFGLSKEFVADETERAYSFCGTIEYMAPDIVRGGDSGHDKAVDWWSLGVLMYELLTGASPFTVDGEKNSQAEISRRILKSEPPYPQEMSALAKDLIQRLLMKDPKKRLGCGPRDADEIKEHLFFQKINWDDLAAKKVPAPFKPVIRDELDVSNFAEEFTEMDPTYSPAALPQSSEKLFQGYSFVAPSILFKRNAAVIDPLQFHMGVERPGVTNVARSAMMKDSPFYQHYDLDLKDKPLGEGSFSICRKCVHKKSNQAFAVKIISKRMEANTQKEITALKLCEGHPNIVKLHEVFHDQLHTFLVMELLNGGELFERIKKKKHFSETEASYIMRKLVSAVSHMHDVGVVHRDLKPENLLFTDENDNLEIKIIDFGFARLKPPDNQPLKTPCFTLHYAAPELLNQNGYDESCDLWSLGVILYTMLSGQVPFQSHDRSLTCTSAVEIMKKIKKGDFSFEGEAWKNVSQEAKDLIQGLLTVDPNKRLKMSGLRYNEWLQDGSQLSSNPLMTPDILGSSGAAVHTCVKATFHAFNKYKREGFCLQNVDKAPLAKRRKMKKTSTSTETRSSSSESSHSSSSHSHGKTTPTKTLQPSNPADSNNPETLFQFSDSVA
T1 sequence (P00519 whole entry): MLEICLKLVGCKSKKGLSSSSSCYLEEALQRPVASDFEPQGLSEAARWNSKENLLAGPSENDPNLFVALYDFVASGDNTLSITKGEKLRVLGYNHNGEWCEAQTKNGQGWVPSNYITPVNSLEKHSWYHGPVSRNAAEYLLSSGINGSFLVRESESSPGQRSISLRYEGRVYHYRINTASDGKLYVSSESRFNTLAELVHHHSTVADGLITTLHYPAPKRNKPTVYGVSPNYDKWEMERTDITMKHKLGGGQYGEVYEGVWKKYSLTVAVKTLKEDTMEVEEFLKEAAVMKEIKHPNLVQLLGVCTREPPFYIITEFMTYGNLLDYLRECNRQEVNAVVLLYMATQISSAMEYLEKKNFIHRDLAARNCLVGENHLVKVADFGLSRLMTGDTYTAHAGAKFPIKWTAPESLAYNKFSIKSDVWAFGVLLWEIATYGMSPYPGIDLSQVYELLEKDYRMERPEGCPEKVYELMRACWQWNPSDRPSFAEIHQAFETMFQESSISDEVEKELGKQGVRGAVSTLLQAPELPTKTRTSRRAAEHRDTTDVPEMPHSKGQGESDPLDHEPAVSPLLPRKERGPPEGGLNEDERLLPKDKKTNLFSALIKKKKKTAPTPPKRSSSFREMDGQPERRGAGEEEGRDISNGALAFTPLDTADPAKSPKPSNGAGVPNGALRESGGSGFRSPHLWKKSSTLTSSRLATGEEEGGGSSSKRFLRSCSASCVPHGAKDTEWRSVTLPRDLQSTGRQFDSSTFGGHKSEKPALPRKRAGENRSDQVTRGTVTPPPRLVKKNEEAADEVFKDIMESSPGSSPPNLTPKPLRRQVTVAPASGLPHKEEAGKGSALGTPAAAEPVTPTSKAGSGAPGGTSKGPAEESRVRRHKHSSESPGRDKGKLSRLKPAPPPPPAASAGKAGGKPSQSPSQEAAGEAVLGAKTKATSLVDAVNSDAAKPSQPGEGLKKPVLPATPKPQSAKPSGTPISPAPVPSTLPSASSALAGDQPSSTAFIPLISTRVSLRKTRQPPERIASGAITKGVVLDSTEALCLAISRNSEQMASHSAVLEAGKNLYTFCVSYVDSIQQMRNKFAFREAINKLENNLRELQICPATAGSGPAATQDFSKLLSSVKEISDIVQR
T11 sequence (Q9BZL6 whole entry): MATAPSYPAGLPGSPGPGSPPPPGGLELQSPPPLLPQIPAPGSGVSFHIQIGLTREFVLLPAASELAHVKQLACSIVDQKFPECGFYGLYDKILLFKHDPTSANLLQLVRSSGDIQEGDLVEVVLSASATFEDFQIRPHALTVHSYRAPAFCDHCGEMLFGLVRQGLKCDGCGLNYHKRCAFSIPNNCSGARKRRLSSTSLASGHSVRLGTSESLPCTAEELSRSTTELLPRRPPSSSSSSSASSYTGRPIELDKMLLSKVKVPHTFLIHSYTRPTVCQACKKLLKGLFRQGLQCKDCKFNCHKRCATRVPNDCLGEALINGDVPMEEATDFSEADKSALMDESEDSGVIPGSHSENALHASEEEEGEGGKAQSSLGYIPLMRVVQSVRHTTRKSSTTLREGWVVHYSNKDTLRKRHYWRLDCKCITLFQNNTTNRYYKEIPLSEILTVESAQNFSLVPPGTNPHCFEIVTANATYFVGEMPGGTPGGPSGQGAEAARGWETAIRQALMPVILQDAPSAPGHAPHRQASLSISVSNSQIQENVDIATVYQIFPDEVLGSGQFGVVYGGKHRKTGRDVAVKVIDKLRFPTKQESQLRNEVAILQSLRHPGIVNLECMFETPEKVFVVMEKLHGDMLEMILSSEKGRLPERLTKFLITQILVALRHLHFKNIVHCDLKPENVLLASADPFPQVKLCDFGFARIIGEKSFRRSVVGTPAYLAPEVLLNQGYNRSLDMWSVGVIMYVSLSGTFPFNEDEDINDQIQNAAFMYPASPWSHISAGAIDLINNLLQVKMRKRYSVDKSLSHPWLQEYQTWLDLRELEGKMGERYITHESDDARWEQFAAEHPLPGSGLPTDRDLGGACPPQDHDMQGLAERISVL

For `Brc1ccc2[nH]cc(-c3nc4c5ccccc5c5ccccc5c4[nH]3)c2c1` [Compound 45], the GI50 [1] was 2000 nM, the formation of vacuoles [2] was “formation of large vacuoles within the cytoplasm” and the formation of vacuoles [3] was “formation of large vacuoles within the cytoplasm”. It also gave an activity at 10 µM (Abl) of 107%, an activity at 10 µM (CDK2/cyclinA) of 95% and an activity at 10 µM (EphB4) of 95%. It also gave an activity at 10 µM (ErbB4) of 73%, an activity at 10 µM (FGFR3) of 82% and an activity at 10 µM (MSK1) of 76%. It also gave an activity at 10 µM (PAK2) of 89%, an activity at 10 µM (PI3K-β) of 11% and an activity at 10 µM (PKCα) of 92%. For the same molecule, the activity at 10 µM (PKCδ) was 87%, the activity at 10 µM (PKD2) was 52% and the activity at 10 µM (Plk3) was 132%. It also gave an activity at 10 µM (Rse) of 176% and an activity at 10 µM (TAK1) of 104%.

Source: US10080739B2, “Aryl imidazoles and their use as anti-cancer agents” (Aptose Biosciences Inc., priority 2003, dated 2018)
